The conditions of data set [1]: literature values (Cevc 1993; Adrian et al. 1992); cited from earlier work.
Another data set has as its target PLA2 from bee venom (Apis mellifera, UniProt P00630).
The target in data set [2] is Clostridium perfringens PLC (Clostridium perfringens, UniProt P0C216).
The next data set concerns the target PLA2 (Apis mellifera, UniProt P00630). The following applies: pH 8.

Sequence of PLA2 from bee venom (P00630 34-167 limits assumed): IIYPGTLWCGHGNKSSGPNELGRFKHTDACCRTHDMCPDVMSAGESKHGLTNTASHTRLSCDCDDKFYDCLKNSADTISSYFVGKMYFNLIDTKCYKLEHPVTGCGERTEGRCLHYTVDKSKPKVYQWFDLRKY
Sequence of PLA2 (P00630 34-167 limits assumed): as above
Sequence of Clostridium perfringens PLC (P0C216 29-398 limits assumed): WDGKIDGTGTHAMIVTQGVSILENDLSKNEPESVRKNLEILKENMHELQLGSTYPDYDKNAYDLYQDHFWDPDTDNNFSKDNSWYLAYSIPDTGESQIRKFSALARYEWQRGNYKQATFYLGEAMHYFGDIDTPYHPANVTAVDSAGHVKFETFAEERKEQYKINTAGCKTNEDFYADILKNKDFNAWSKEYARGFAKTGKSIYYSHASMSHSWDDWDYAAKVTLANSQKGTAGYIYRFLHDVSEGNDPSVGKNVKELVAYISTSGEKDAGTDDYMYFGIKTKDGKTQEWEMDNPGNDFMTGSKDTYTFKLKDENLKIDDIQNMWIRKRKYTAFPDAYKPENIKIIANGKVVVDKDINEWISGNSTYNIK

Consider `CCCCCCCCCCCCCC(=O)OC[C@H](COP(=O)(O)OC[C@H](N)C(=O)O)OC(=O)CCCCCCCCCCCCC` [DMPS], for which the CMC result in data set [1] is “about 60 nM”.
What is called IC50 is the point on the concentration scale where inhibition reaches its midpoint. Low readings indicate greater potency, high ones weaker potency. The compound `CCCCCCCCCCCCCCCCOCC(COCC(F)(F)F)OP(=O)(O)OC` (centres unmarked) [inhibitor 122] returned an IC50 on PLA2 from bee venom of around 2000 nM.
Turning to “1,2-dioleoyl-sn-glycero-3-phosphoethanolamine-N-(Oregon Green® 488, 5-isomer) [compound 60]”, the cleavage activity result in data set [2] is reported as “no activity was observed”.
As to “1,2-dimyristoyl-sn-glycero-3-phosphoethanolamine-N-(Oregon Green 500, 5-isomer) [compound 84]”, the “time until all substrate converted to polar product” value at PLA2 is on record as “about 30 min”.
On to `CCCCCCCCCCCCCC(=O)OC[C@H](COP(=O)([O-])OCC[N+](C)(C)C)OC(=O)CCCCCCCCCCCCC` [DMPC], for which, in data set [1], the CMC result is given as “about 4 nM”.

Values taken from patent US20050026235A1 (priority 2003, published 2005).
